Here are results for 2 compounds from patent US20070207201A1, “Liquid and Semi-Solid Pharmaceutical Formulations and Processes” (Wyeth, priority 2006, published 2007).

Type in all cases: physicochemical
The nature of data set [1]: Dynamic vapor sorption (hygroscopicity) of the two crystal forms. Conditions: for DVS weight gain: 0–90% RH. The source says:
Dynamic Vapor Sorption (Allentown, Pa.) was used to measure the hygroscopicity of the anhydrate and monohydrate of the invention (see FIGS. 6 and 7). The step conditions were three hours each at 0%, 30%, 52.5%, 75% and 90% RH, two full cycles.

Data set [2] in a line: Stability studies of the two crystal forms (crystal form by XRPD/TGA). Conditions: for Long term stability of crystal form (XRPD and TGA): non-micronized, three months. Here is the method: Samples of monohydrate were stored at room temperature, 56° C., and 70° C. for one week. At room temperature, humidity was maintained at 0% RH. Humidity was not controlled for the higher temperatures.
The samples were analyzed by XRPD and TGA.
(§1) Non-micronized samples of monohydrate and anhydrate were stored at 40° C./75% RH for three months. The monohydrate was also stored at 40° C. without humidity control. During the three months, the samples were checked after two weeks, one month, two months, and three months.

Experiment in data set [3]: as above
A short description of data set [4]: Water solubility of the two crystal forms. The conditions noted are these: for solubility: water, thermodynamic from solid.
Data set [5] in a line: Chemical stability of the crystal forms on storage (HPLC). Conditions: non-micronized, 40° C./75% RH (monohydrate also 40° C. without humidity control), three months. Here is the method: as §1

Turning to `C=Cc1cc(O)cc2nc(-c3ccc(O)c(F)c3)oc12` [Monohydrate, 2-(3-fluoro-4-hydroxyphenyl)-7-vinyl-1,3-benzoxazol-5-ol], the “Hygroscopicity (from DVS data)” value in data set [1] is “largely non-hygroscopic”. In data set [1], the DVS weight gain is 0.1% gain (0–90% RH). Also, the “Medium term stability of crystal form (XRPD and TGA)” value in data set [2] (56° C., humidity not controlled, one week) is “no obvious dehydration”; in data set [2] (70° C., humidity not controlled, after 1 day), “no obvious hydration”; in data set [2] (70° C., humidity not controlled, after 4 days), “partially dehydrated”; in data set [2] (70° C., humidity not controlled, after 7 days), “mostly dehydrated”; in data set [2] (room temperature, 0% RH, one week), “no obvious dehydration”. In addition, the “Long term stability of crystal form (XRPD and TGA)” value in data set [2] (40° C. without humidity control) and in data set [2] (40° C./75% RH) was “did not transform” throughout. Also, the entries for the “Short term stability of crystal form (XRPD)” value in data set [3] (70° C. for one hour), in data set [3] (90° C. after one half hour) and in data set [3] (90° C. after one hour) were “stable”, “partially dehydrated” and “completely dehydrated”, respectively. The “Water solubility compared between the two forms” value in data set [4] is “significantly lower solubility than the anhydrate”. Also, the solubility in data set [4] (pH 7.11, water) worked out at 2.34 µg/mL; in data set [4] (pH 7.51, water), 2.21 µg/mL. Moreover, the “Long term chemical stability (HPLC)” value in data set [5] is recorded as “chemically stable”.

Take `C=Cc1cc(O)cc2nc(-c3ccc(O)c(F)c3)oc12` [Anhydrate, 2-(3-fluoro-4-hydroxyphenyl)-7-vinyl-1,3-benzoxazol-5-ol]: the “Hygroscopicity (from DVS data)” value in data set [1] is listed as “largely non-hygroscopic”. In data set [1], the DVS weight gain is on record as 0.2% gain (0–90%. Also, the “Long term stability of crystal form (XRPD and TGA)” value in data set [2] (40° C./75% RH) was “did not transform”. Besides, the “Long term stability of crystal form (XRPD)” value in data set [3] (micronized, 25° C./60% RH, three months) is reported as “did not transform to the monohydrate”; in data set [3] (micronized, 40° C./75% RH, after one month), “partially transform to the monohydrate”; in data set [3] (non-micronized, 40° C./75% RH, separate study), “did not show any obvious transformation”. Also, the solubility in data set [4] (pH 7.29, water) is 10 µg/mL; in data set [4] (pH 7.7, water, pH 7.70), 12.8 µg/mL. Moreover, in data set [5], the “Long term chemical stability (HPLC)” value is given as “chemically stable”.

In general, solubility refers to the dissolved amount per volume that the medium holds.
